According to US6740497B2, “Method and apparatus for detecting cancerous cells using molecules that change electrophoretic mobility” (The Regents of the University of California, priority 1998, dated 2004):
Peptide text beside a SMILES is read from it. * marks the point of attachment. 5FAM = O=C1OC2(c3ccc(O)cc3Oc3cc(O)ccc32)c2ccc(C(=O)*)cc21

Experiments:
RBL cell = experiment: Intracellular side reactions (degradation/modification) of the Fl-sPKC reporter in a microinjected RBL cell; format: cell-based, rat; settings: 200 μM Pefabloc present, with or without PMA, FIGS. 2B and 2C
Description: In the measurements illustrated by FIG. 2A-C, prior to mounting on the microscope stage for microinjection and analysis at room temperature (20°-23° C.), each cell chamber 199 was treated by addition of 10 μl of 10 mM Pefabloc (Boehringer-Mannheim, Indianapolis, Ind.) in buffer A with gentle manually pipetted mixing using a Pipetman® (Rainin, Woburn, Mass.).
This yielded a final Pefabloc concentration of 200 μM. Pefabloc is a soluble, physiologically tolerated, inhibitor of serine proteases, a subset of intracellular enzymes that tend to degrade peptides. Pefabloc was included to minimize intracellular degradation of Fl-sPKC. […]
In the measurements illustrated by FIGS. 2A-C, Fl-sPKC was diluted in buffer B, a physiologically compatible intracellular buffer composed of 10 mM Hepes and 140 mM KCl, at pH 7.4. […] The cells 46 that had been successfully microinjected were identified by visual observation of internal Calcium Orange epi-fluorescence through a set of TRITC filters (Chroma Technology Corp., Brattleboro, Vt.) (not shown, but included in the microscope 12) to minimize photodestruction of the fluorescein moiety on Fl-sPKC. […]
Clearly activation of an intracellular kinase by a potent pharmacologic activator can be measured by this approach. Furthermore, both electrophoretograms in FIGS. 2B and 2C show the presence of peaks that cannot be readily identified. […]

protein kinase C (PKC) [1] = experiment: Net intracellular PKC activity in single RBL cells: microinjected Fl-sPKC reporter, laser lysis, capillary electrophoresis, laser-induced fluorescence; format: cell-based, rat; settings: RBL cell
Description: FIGS. 2A-C and 3A-C are two sets of graphs of three stacked electrophoretograms of reporter substrate molecule separations all made under identical electrophoretic conditions on the same day. In the first embodiment, illustrated by FIGS. 2A-C and FIGS. 3A-C, rat basophilic leukemia (RBL) cells, from the tumor mast cell line RBL-2H3, were used. These cells were grown at 37° C. and 5% CO2 in Dulbecco's modified eagle medium (DMEM) supplemented with 10% fetal bovine serum, and L-glutamine ([…]). Penicillin (100 units/ml) and streptomycin (100 μg/ml) were added to the media to inhibit bacterial growth. […] The cells 46 were plated at concentrations determined empirically to produce approximately one cell per 100× field of view on the day of the measurement. […]
In the first embodiment, the microscopy system of FIG. 9 used for cell lysis was similar to that described previously in the incorporated application entitled “Fast Controllable Laser Lysis of Cells for Analysis”. The frequency-doubled Q-switched Nd:YAG laser 18 (Minilite II, Continuum, Santa Clara, Calif.; Minilase II-20, New Wave Research, Sunnyvale, Calif.) was used to generate a single pulse (1-25 μJ, 5-ns pulse width, 532 nm) directed into a fluorescence microscope 12 (Axiovert 135, Zeiss, Thornwood, N.Y.). […]

protein kinase C (PKC) [2] = experiment: Intracellular Fl-sPKC phosphorylation by PKC in single Xenopus laevis oocytes (PERT CE sampling, MEKC); format: cell-based
Description: Oocytes 46′ were surgically obtained from pigmented or albino Xenopus laevis frogs and were cultured as described previously. Oocytes 46′ were microinjected by means of an injector mounted on a low power dissecting microscope (not shown) with 50 nl of reporter substrate peptide (0.5-200 μM) in buffer B, and then incubated for 30 min to permit diffusion of the peptide through the oocyte 46′. For measurements, oocytes 46′ were placed in buffer C (96 mM NaCl, 2 mM KCl, 1.8 mM CaCl2, 1 mM MgCl2, 5 mM Hepes, pH 7.6). When LPA (1-oleoyl-2-hydroxy-sn-glycero-3-phosphate, Avanti Polar Lipids, Alabaster, Ala.) was added to the oocytes 46′, fatty acid-free bovine serum albumen (5%) was used as a carrier as described previously.
All samples from the oocytes 46′ were obtained and electrophoresed by a method referred to as piezoelectric sampling/rapid translation/capillary electrophoresis (PERT CE). The apparatus used for PERT CE is illustrated in FIGS. 8A-B. FIGS. 8A and 8B are diagrammatic depictions of the components of the apparatus used to make measurements of intracellular enzyme activity from single Xenopus laevis oocytes 46′. […] The holder is part of a complete apparatus for automatically sampling oocyte cytoplasm and rapidly subjecting this sample to electrophoresis before any substantial change in the substrate molecules can occur. This is achieved by providing a sharpened electrophoresis capillary 22 attached to a high speed translation system to plunge the capillary into the cell to capture a plug of cytoplasm. Then the capillary is automatically withdrawn from the oocyte and rapidly moved to make electrical contact with a reservoir 134 of electrophoresis buffer so that electrophoresis of the substrate molecules within the “plug” commences before any additional chemical reactions occur.
To obtain cytoplasm, the capillary 22 was driven 60 μm into the oocyte 46′ by the piezoelectric element. […] The capillary 22 was then automatically withdrawn from the cytoplasm. […] Electrophoresis was initiated immediately. […]

protein kinase C (PKC) [3] = experiment: Time course of intracellular Fl-sPKC phosphorylation by PKC in single NIH/3T3 cells (laser lysis, capillary electrophoresis); format: cell-based, murine; settings: 100 nM PMA, 5 minute time point, room temperature, FIG. 12

Compound | side products as share of collected fluorescence (RBL cell) | Fl-sPKC peak versus P-Fl-sPKC peak (net PKC activity) (protein kinase C (PKC) [1]; 100 nM PMA, 5 minutes, FIG. 2C) | PKC activation (peaks matching P-Fl-sPKC) (protein kinase C (PKC) [1]; 1 μM PMA for 10 minutes before microinjection of Fl-sPKC and Fl-sPKA, FIG. 11C) | collected fluorescence corresponding to P-Fl-sPKC (protein kinase C (PKC) [2]; Xenopus oocyte, 10 μM PMA for 10 minutes, ~10 μM reporter substrate, FIG. 4D) | degree of reporter substrate phosphorylation (protein kinase C (PKC) [2]; Xenopus oocyte, 10 μM PMA for three minutes, FIG. 5) | average rate of Fl-sPKC phosphorylation within oocytes (protein kinase C (PKC) [2]; Xenopus oocytes, 10 μM activator, intermediate time points, FIGS. 6A/6B) | phosphorylation level of Fl-sPKC (protein kinase C (PKC) [3])
CC(C)C[C@H](NC(=O)[C@H](CO)NC(=O)CNC(=O)[C@H](CCCCN)NC(=O)[C@H](CCCNC(=N)N)NC(=O)[C@H](C)NC(=O)[C@H](Cc1ccccc1)NC(=O)[C@H](CCCNC(=N)N)NC(=O)c1ccc2c(c1)C(=O)OC21c2ccc(O)cc2Oc2cc(O)ccc21)C(=O)N[C@@H](CCCNC(=N)N)C(=O)N[C@@H](CCC(N)=O)C(=O)N[C@@H](CCCCN)C(=O)N[C@@H](CC(N)=O)C(=O)N[C@H](C(=O)O)C(C)C [Fl-sPKC, Fl- Arg-Phe-Ala-Arg-Lys-Gly-Ser-Leu-Arg-Gln-Lys-Asn-Val] (5FAM-RFARKGSLRQKNV-OH) | about 50% | – | – | – | – | – | –
CCCCCCCCCCCCCC(=O)O[C@@H]1[C@@H](C)[C@@]2(O)[C@@H](C=C(CO)C[C@]3(O)C(=O)C(C)=C[C@@H]23)[C@@H]2C(C)(C)[C@]12OC(C)=O [PMA, phorbol myristic acid] | – | nearly equal magnitude | small, but measurable amount of PKC activation | essentially all collected fluorescence | intermediate degree of reporter substrate phosphorylation | 25 ± 15 nM/s | ~50%
